In patent US9938230B2, “Esters or salts of 2-hydroxy-4-propylcyclohepta-2,4,6-trienone and application thereof in preparation of animal antibacterial agents and growth promoters used in feed” (GUANGZHOU INSIGHTER BIOTECHNOLOGY CO., LTD., priority 2014, dated 2018):

What was measured:
[1] = Thermal stability test of different metal salts, 2% premix with corncob powder at 100° C., HPLC; type: physicochemical; details: for Residual content at 100° C. for 20 h (%) / Residual content at 100° C. for 40 h (%): 2% premix; for Initial content (%): 2% premix with corncob powder, before heating; for Residual content at 100° C. for 20 h (%) / Residual content at 100° C. for 40 h (%) / thermal stability (in words): 100° C.; for thermal stability (in words): compared with IST-009-001
Experimental: (§1) Each of the metal salts of 2-hydroxy-4-propylcyclohepta-2,4,6-trienone prepared in Embodiments 2-6 was mixed with corncob powder to obtain a premix with a mass fraction of 2%. Samples (the premix) were placed in crucibles and spread, and then placed in oven at 100° C. for different durations. Then 1.0 g of each of the samples (three duplicate samples from each sample) and 50 ml of ethanol were added into a conical flask, subjected to sonication for 10 min, and then filtrated through filter paper. The filtrate was transferred into a 50 ml volumetric flask, topped up to the final volume with ethanol, and then filtered with a 0.45 μm microporous membrane and subjected to HPLC analysis.
(§2) Chromatographic Parameters
(§3) Column: Wondasil C18 (250 mm×4.6 mm, 5 μm);
Mobile phase: methanol/40 mM ammonium acetate (65:35, v/v; pH 4):
(§4) Detection Wavelength: 220 nm;
(§5) Column Temperature: 25° C.;
(§6) Flow Rate: 0.8 or 1.0 ml/min.

[2] = Optical stability test of different metal salts, 2% premix, illumination at 4500-5000 lux for 5 days, HPLC; type: physicochemical; details: for Residual content of 5 days later (%): 2% premix; for Initial content (%): 2% premix with corncob powder, before illumination
Experimental: Samples (the premixes) were spread in a stability test chamber and subjected to illumination at 4500-5000 lux for 5 days. Then 1.0 g of each of the samples (three duplicate samples from each sample) and 50 ml of ethanol were added into a conical flask, subjected to sonication for 10 min, and then filtrated through filter paper. The filtrate was transferred into a 50 ml volumetric flask, topped up to the final volume with ethanol, and then filtered with a 0.45 μm microporous membrane and subjected to HPLC analysis. Column: WondasilC18 (250 mm×4.6 mm, 5 μm); Mobile Phase: methanol/40 mM ammonium acetate (65:35, v/v; pH 4): Detection Wavelength: 220 nm; Column Temperature: 25° C.; […] Flow Rate: 0.8 or 1.0 ml/min.

[3] = tested on: yellow feather broilers (female); test: Application in broiler feeds, 30 days test period, weight gain and feed conversion; type: in vivo; details: for Average daily weight gain / Average weight gain / Feed conversion efficiency / Consumption: 30 days; for Consumption: group of 100 broilers
From the text: 500 1-day-aged, healthy, fast-grown yellow feather broilers (female) in the same growing state and similar in weight were randomly divided into five groups according to table 4, 100 broilers in each group. Broilers of each group were fed with different dosages of magnesium 7-oxo-3-propylcyclohepta-1,3,5-trienolate or 2-hydroxy-4-propylcyclohepta-2,4,6-trienone.

[4] = Thermal stability test of 7-oxo-3-propylcyclohepta-1,3,5-trien-1-yl stearate, 2% premix with corncob powder in oven, HPLC; type: physicochemical
Experimental: as §1, with “The” for “Each of the metal salts of 2-hydroxy-4-propylcyclohepta-2,4,6-trienone”, “7-oxo-3-propylcyclohepta-1,3,5-trien-1-yl stearate (IST-009-050)” for “in Embodiments 2-6”, “60°” for “100°”, “C. or eat” for “C.”
as §2, §3
Mobile Phase: acetonitrile (100%);
as §4, §5, §6

[5] = 2.5 ppm mixed with feed, broilers
[6] = 5.0 ppm mixed with feed, broilers

For `CCCc1cccc(=O)c(O)c1` [Calcium 7-oxo-3-propylcyclohepta-1,3,5-trienolate], which “Residual content at 100° C. for 20 h (%)” value [1] is on record?
Its value is 1.73%.

What about the “Residual content at 100° C. for 40 h (%)” value [1] of the same compound?
Its value is 1.67%.

What about the “Residual content of 5 days later (%)” value ([2]; 4500-5000 lux, 5 days) of the same compound?
Its value is 0.89%.

For `CCCc1cccc(=O)c([O-])c1.[K+]` [potassium 7-oxo-3-propylcyclohepta-1,3,5-trienolate], which “Initial content (%)” value [1] is on record?
The value was 2.0%.

And the “Residual content at 100° C. for 20 h (%)” value [1]?
Its value is 1.43%.

What about the “Residual content at 100° C. for 40 h (%)” value [1] of the same compound?
The value was 1.13%.

What about the “Initial content (%)” value [2] of the same compound?
The value was 2.0%.

What about the “Residual content of 5 days later (%)” value ([2]; 4500-5000 lux, 5 days) of the same compound?
The value was 0.17%.

With `CCCc1cccc(=O)c(O)c1` [Manganese 7-oxo-3-propylcyclohepta-1,3,5-trienolate] as the compound, how does the “Initial content (%)” value [1] read?
The value was 2.0%.

And the “Residual content at 100° C. for 20 h (%)” value [1]?
Its value is 1.99%.

What about the “Residual content at 100° C. for 40 h (%)” value [1] of the same compound?
The value was 1.98%.

What about the “thermal stability (in words)” value [1] of the same compound?
Its value is “highest thermal stability”.

And the “Residual content of 5 days later (%)” value ([2]; 4500-5000 lux, 5 days)?
Its value is 1.96%.

And the “optical stability (in words)” value ([2]; 4500-5000 lux, 5 days)?
Its value is “most significant”.

What does the source list for `CCCc1cccc(=O)c([O-])c1.[Na+]` [sodium 7-oxo-3-propylcyclohepta-1,3,5-trienolate]?
Initial content (%) [1]: 2.0%; Residual content at 100° C. for 20 h (%) [1]: 1.31%; Residual content at 100° C. for 40 h (%) [1]: 1.11%; Initial content (%) [2]: 2.0%; Residual content of 5 days later (%) ([2]; 4500-5000 lux, 5 days): 0.05%

Which “Residual content at 100° C. for 40 h (%)” value [1] does the source give for `CCCc1cccc(=O)c(O)c1` [Magnesium 7-oxo-3-propylcyclohepta-1,3,5-trienolate] here?
Its value is 1.99%.

What about the “Residual content of 5 days later (%)” value ([2]; 4500-5000 lux, 5 days) of the same compound?
Its value is 1.52%.

And the “Average daily weight gain” value [3, 5]?
The value was 26.2 g.

What about the “Average weight gain” value [3, 5] of the same compound?
The value was 785 g.

And the Feed conversion efficiency [3, 5]?
Its Feed conversion efficiency is 1.984.

What about the “Consumption” value ([3]; 2.5 ppm mixed with feed) of the same compound?
The value was 155.94 kg.

What about the “Average daily weight gain” value [3, 6] of the same compound?
The value was 26.6 g.

What about the “Average weight gain” value [3, 6] of the same compound?
Its value is 798 g.

What about the Feed conversion efficiency [3, 6] of the same compound?
Its Feed conversion efficiency is 1.899.

And the “Consumption” value ([3]; 5.0 ppm mixed with feed)?
Its value is 151.54 kg.

And the “feed conversion efficiency (in words)” value ([3]; broilers, 30 days test period)?
The value was “significantly improved”.

And the “weight gain (in words)” value ([3]; broilers, 30 days test period)?
The value was “significantly improved”.

Which “Content (%)” value ([4]; 2% premix with corncob powder, before heating (no temperature, no time)) does the source give for `CCCCCCCCCCCCCCCCCC(=O)Oc1cc(CCC)cccc1=O` [IST-009-050, 7-oxo-3-propylcyclohepta-1,3,5-trien-1-yl stearate] here?
The value was 2.0%.

And the “Content (%)” value ([4]; 2% premix, 60° C., 22 h)?
The value was 0.84%.

What about the “Content (%)” value ([4]; 2% premix, 60° C., 44 h) of the same compound?
Its value is 0.35%.

What about the “Content (%)” value ([4]; 2% premix, 60° C., 68 h) of the same compound?
Its value is 0.14%.

What about the “Content (%)” value ([4]; 2% premix, 80° C., 22 h) of the same compound?
Its value is 0.61%.

And the “Content (%)” value ([4]; 2% premix, 80° C., 44 h)?
The value was 0.03%.

And the “Content (%)” value ([4]; 2% premix, 80° C., 68 h)?
Its value is 0%.

And the “thermal stability (in words)” value ([4]; compared with IST-009-001)?
Its value is “better than the unesterified 2-hydroxy-4-propylcyclohepta-2,4,6-trienone (IST-009-001), but not satisfactory yet”.

Which “Content (%)” value ([4]; 2% premix, 80° C., 22 h) does the source give for `CCCc1cccc(=O)c(O)c1` [IST-009-001, 2-hydroxy-4-propylcyclohepta-2,4,6-trienone] here?
The value was 0%.

And the “Content (%)” value ([4]; 2% premix, 80° C., 44 h)?
Its value is 0%.

What about the “Content (%)” value ([4]; 2% premix, 80° C., 68 h) of the same compound?
The value was 0%.

And the “Initial content (%)” value [1]?
The value was 2.0%.

And the “Residual content at 100° C. for 20 h (%)” value [1]?
Its value is 0%.

And the “Residual content at 100° C. for 40 h (%)” value [1]?
Its value is 0%.

And the “Initial content (%)” value [2]?
Its value is 2.0%.

What about the “Residual content of 5 days later (%)” value ([2]; 4500-5000 lux, 5 days) of the same compound?
The value was 0%.

And the “Average daily weight gain” value [3, 5]?
Its value is 26.1 g.

What about the “Average weight gain” value [3, 5] of the same compound?
Its value is 783 g.

What about the Feed conversion efficiency [3, 5] of the same compound?
The Feed conversion efficiency was 1.988.

And the “Consumption” value ([3]; 2.5 ppm mixed with feed)?
Its value is 156.66 kg.

And the “Average daily weight gain” value [3, 6]?
The value was 26.8 g.

What about the “Average weight gain” value [3, 6] of the same compound?
Its value is 804 g.

What about the Feed conversion efficiency [3, 6] of the same compound?
The Feed conversion efficiency was 1.906.

And the “Consumption” value ([3]; 5.0 ppm mixed with feed)?
The value was 153.24 kg.

For `CCCc1cccc(=O)c(O)c1` [magnesium 7-oxo-3-propylcyclohepta-1,3,5-trienolate], which “thermal stability (in words)” value [1] is on record?
The value was “highest thermal stability”.
